Measurements taken from patent publication US20070203060A1, “Casein Derived Peptides And Therapeutic Uses Thereof” (priority 2004, published 2007).
Where “and” joins values, the source holds several entries; their conditions need not be identical. Equal entries are not always repeated.

Experiments:
[1] = system: Juvenile (Type I, IDDM) diabetes in NOD mice; test: Glucosuria in Non-Obese Diabetic (NOD) mice; assay type: in vivo, mouse; conditions: three injections of 1 mg each, 3 days apart, at 25 weeks
Procedure: Juvenile (Type I, IDDM) diabetes in Non-Obese Diabetic (NOD) mice:
Peptides derived from natural casein: NOD mice are a commonly used model for research of autoimmune disease and human Juvenile Diabetes. Six week old female NOD mice received either one or two injections per week of 100 μg of peptides derived from natural casein, for a total of 5 or 10 treatments. Control mice received no treatment. The severity of disease was determined according to glucosuria, which was measured using Combi test sticks [Gross, D. J. et al. (1994), Diabetology, 37:1195]. Results were expressed as the percent of glucosuria-free mice in each sample over a 365-day period.
Synthetic peptides derived from casein: In another experiment, 6 week old female NOD mice received two injections per week of 100 μg of Synthetic peptides derived from casein for a total of 10 treatments, or three injections of 1 mg each, 3 days apart, for a total of 3 treatments. Control mice received no treatment. Results were expressed as the number of healthy mice in the various treated groups.

[2] = system: glucose metabolism in NOD mice; test: Intraperitoneal Glucose Tolerance Test (IPGTT) in NOD mice; assay type: in vivo, mouse; conditions: NOD mice, three injections of 1 mg each, 3 days apart; 25 weeks
Procedure: Intraperitoneal Glucose Tolerance Test (IPGTT): The glucose tolerance test is the definitive method for investigating glucose metabolism and diabetic tendencies in mammals. Twenty five (25) weeks after receiving Synthetic peptides derived from casein, response to a glucose load was assessed with an intraperitoneal glucose tolerance test. Glucose injection consisted of 1 g/kg body weight. Glycemic values were determined from blood drawn prior to test (0 minutes) and 60 minutes after loading.

[3] = system: peripheral white blood cells of myeloablated, bone marrow transplanted mice; test: Leukocyte reconstitution in irradiated bone marrow transplant recipient mice; assay type: in vivo, mouse; conditions: BALB/c, 600 cGy, 1 mg per mouse i.p.
[4] = system: murine primary bone marrow cells (CFU-GEMM); test: Multipotential colonies (CFU-GEMM) from murine bone marrow cells, colony and differential counts; assay type: cell-based, mouse; conditions: 8 days treatment
Procedure: Proliferation of megakaryocytes in multipotential colonies (CFU-GEMM) from murine Bone Marrow cells: Primary bone marrow cells (1×10^5 per ml) from 8-12 week-old C3H/HeJ mice were grown in serum-free methyl cellulose-IMDM medium for 8-9 days at 5% CO2, 95% air, at 37° C. The medium, appropriate for the growth of multipotential colonies (CFU-GEMM), contained 1% BSA (Sigma), 10^−4 M thioglycerol (Sigma), 2.8×10^−4 M human transferrin (TF, Biological industries, Israel), 10% WEHI-CM as a source of IL-3 and 2 units per ml erythropoietin (rhEPO, R & D Systems, Minneapolis). […] They were picked with a micropipette, cytocentrifuged and stained with May-Grunwald-Giemsa for differential counts. At least 700 cells were counted for each preparation. […]

RPKHPIKHQGLPQEV [C]
mice in which no glucosuria was detected [1]: 3 out of 5 | blood glucose values in response to a glucose load (IPTG test) [2]: 101 and 113 and 102 | peripheral white blood cell count ([3]; day 10): 1.72 ×10^6 cells per ml | peripheral white blood cell count ([3]; day 12): 6.54 ×10^6 cells per ml

RPKHPIKHQGLPQEVLNEN
mice in which no glucosuria was detected [1]: two out of 5 | blood glucose values in response to a glucose load (IPTG test) [2]: < 120 | megakaryocyte formation and development (in words) [4]: significant increase
